Experimental data reported in the supplement of paper PMC11061612.

Experiments:
Test in all cases: Bliss excess, mean over the matrix (fraction); higher = more synergy
IST-MEL1 (Melanoma) = system: IST-MEL1 (Melanoma)
In short: (§1)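 Bliss excess equals the observed combination effect minus the expected value EA + EB − EA·EB, where EA and EB are the effects of each agent alone. Combination Emax is the second-highest inhibition within the matrix. Inhibition was scaled from CellTiter-Glo 2.0 luminescence, with 0 set by vehicle wells and 1 by blank wells, after 72 hours of two-drug dosing of cells plated in 1536-well plates.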

[1] = system: LCLC-103H (Non-Small Cell Lung Carcinoma)
In short: as §1

[2] = system: LS-1034 (Colorectal Carcinoma)
In short: as §1

[3] = system: MM1S (Plasma Cell Myeloma)
In short: as §1

NB1 (Neuroblastoma) = system: NB1 (Neuroblastoma)
In short: as §1

[4] = system: NCI-H1876 (Small Cell Lung Carcinoma)
In short: as §1

[5] = system: NCI-H1963 (Small Cell Lung Carcinoma)
In short: as §1

NCI-H226 (Mesothelioma) = system: NCI-H226 (Mesothelioma)
In short: as §1

NCI-H2373 (Mesothelioma) = system: NCI-H2373 (Mesothelioma)
In short: as §1

[6] = system: NMC-G1 (Low Grade Glioma)
In short: as §1

[7] = system: OAW-28 (Ovarian Carcinoma)
In short: as §1

[8] = system: OVCAR-3 (Ovarian Carcinoma)
In short: as §1

[9] = system: SAT (Head and Neck Carcinoma)
In short: as §1

[10] = system: SK-CO-1 (Colorectal Carcinoma)
In short: as §1

[11] = system: SNU-407 (Colorectal Carcinoma)
In short: as §1

[12] = system: SUP-M2 (T-Cell Non-Hodgkin's Lymphoma)
In short: as §1

[13] = system: SiHa (Cervical Carcinoma)
In short: as §1

T47D (Breast Carcinoma) = system: T47D (Breast Carcinoma)
In short: as §1

[14] = system: T84 (Colorectal Carcinoma)
In short: as §1

[15] = system: ZR-75-30 (Breast Carcinoma)
In short: as §1

SMILES	Bliss excess (IST-MEL1 (Melanoma))	Bliss excess [1]	Bliss excess [2]	Bliss excess [3]	Bliss excess (NB1 (Neuroblastoma))	Bliss excess [4]	Bliss excess [5]	Bliss excess (NCI-H226 (Mesothelioma))	Bliss excess (NCI-H2373 (Mesothelioma))	Bliss excess [6]	Bliss excess [7]	Bliss excess [8]	Bliss excess [9]	Bliss excess [10]	Bliss excess [11]	Bliss excess [12]	Bliss excess [13]	Bliss excess (T47D (Breast Carcinoma))	Bliss excess [14]	Bliss excess [15]
CC1(C)CCC(CN2CCN(c3ccc(C(=O)NS(=O)(=O)c4ccc(NCC5CCOCC5)c([N+](=O)[O-])c4)c(Oc4cnc5[nH]ccc5c4)c3)CC2)=C(c2ccc(Cl)cc2)C1 [Venetoclax] + C1CN(CCC1(C(=O)N[C@@H](CCO)C2=CC=C(C=C2)Cl)N)C3=NC=NC4=C3C=CN4 [Capivasertib] (first compound max 1 µM, 7x7, partner max 3 µM)	-0.0762	-0.0756	-0.0214	-0.0028	-0.0596	-0.0952	-0.0031	-0.0673	-0.0774	-0.0683	-0.0123	-0.0288	-0.0422	-0.0247	-0.0204	-0.0232	-0.002	-0.0113	-0.0518	-0.0324
CC1(C)CCC(CN2CCN(c3ccc(C(=O)NS(=O)(=O)c4ccc(NCC5CCOCC5)c([N+](=O)[O-])c4)c(Oc4cnc5[nH]ccc5c4)c3)CC2)=C(c2ccc(Cl)cc2)C1 [Venetoclax] + C=CCn1c(=O)c2cnc(Nc3ccc(N4CCN(C)CC4)cc3)nc2n1-c1cccc(C(C)(C)O)n1 [AZD1775] (first compound max 1 µM, partner max 1 µM)	0.0462	-0.0136	-0.043	-0.0281	-0.0466	-0.001	0.123	-0.0296	-0.0789	0.0064	-0.009	-0.067	-0.0537	-0.04	-0.0755	0.03	-0.0527	-0.0814	-0.0498	-0.0286
CC1(C)CCC(CN2CCN(c3ccc(C(=O)NS(=O)(=O)c4ccc(NCC5CCOCC5)c([N+](=O)[O-])c4)c(Oc4cnc5[nH]ccc5c4)c3)CC2)=C(c2ccc(Cl)cc2)C1 [Venetoclax] + CCN(CCO)CCCOc1ccc2c(Nc3cc(CC(=O)Nc4cccc(F)c4)[nH]n3)ncnc2c1 [AZD2811] (first compound max 1 µM, 7x7, partner max 1 µM)	0.0278	-0.0756	-0.0328	0.0157	-0.0139	0.129	0.0196	-0.0604	-0.0047	-0.0253	0.0375	-0.0087	-0.0043	0.0082	-0.036	0.0126	-0.0107	0.0229	-0.0249	-0.0575
CC1(C)CCC(CN2CCN(c3ccc(C(=O)NS(=O)(=O)c4ccc(NCC5CCOCC5)c([N+](=O)[O-])c4)c(Oc4cnc5[nH]ccc5c4)c3)CC2)=C(c2ccc(Cl)cc2)C1 [Venetoclax] + CN(C)CCCOc1ccc(-c2ccc3ncc4c(c3c2)n(C2CCOCC2)c(=O)n4C)cn1 [AZD0156] (first compound max 1 µM, 7x7, partner max 1 µM)	-0.0207	-0.0404	-0.052	0.0344	-0.0278	0.0501	0.0715	-0.0536	-0.0564	-0.0373	0.0076	-0.0303	-0.015	-0.0119	-0.0437	0.0191	-0.0419	-0.0366	-0.0452	-0.0422
CC1(C)CCC(CN2CCN(c3ccc(C(=O)NS(=O)(=O)c4ccc(NCC5CCOCC5)c([N+](=O)[O-])c4)c(Oc4cnc5[nH]ccc5c4)c3)CC2)=C(c2ccc(Cl)cc2)C1 [Venetoclax] + COc1cc(Nc2ncc3c(n2)-c2ccc(Cl)cc2C(c2c(F)cccc2OC)=NC3)ccc1C(=O)O [Alisertib] (first compound max 1 µM, 7x7, partner max 10 µM)	-0.0547	-0.0132	-0.0252	0.078	0.117	0.0228	0.0303	-0.089	-0.0293	-0.0125	0.0736	-0.0234	-0.0525	0.0901	-0.0296	-0.0043	-0.0669	-0.0093	0.0136	-0.0603
CC1(C)CCC(CN2CCN(c3ccc(C(=O)NS(=O)(=O)c4ccc(NCC5CCOCC5)c([N+](=O)[O-])c4)c(Oc4cnc5[nH]ccc5c4)c3)CC2)=C(c2ccc(Cl)cc2)C1 [Venetoclax] + C[C@@H]1COCCN1C2=NC(=NC(=C2)C3(CC3)[S@](=N)(=O)C)C4=C5C=CNC5=NC=C4 [AZD6738] (first compound max 1 µM, 7x7, partner max 10 µM)	-0.019	-0.0085	-0.0255	0.0444	-0.0444	-0.0358	0.0004	-0.0383	-0.0052	-0.0032	-0.0216	-0.0108	-0.0144	-0.103	-0.0138	0.0239	-0.0036	-0.0634	-0.0134	-0.0359
CC1(C)CCC(CN2CCN(c3ccc(C(=O)NS(=O)(=O)c4ccc(NCC5CCOCC5)c([N+](=O)[O-])c4)c(Oc4cnc5[nH]ccc5c4)c3)CC2)=C(c2ccc(Cl)cc2)C1 [Venetoclax] + C[C@@H](Nc1cc(F)cc(F)c1)c1cc(C(=O)N(C)C)cc2c(=O)cc(N3CCOCC3)oc12 [AZD8186] (first compound max 1 µM, 7x7, partner max 3 µM)	0.0253	-0.0504	-0.0318	0.0377	-0.047	-0.0181	0.21	-0.0577	-0.0473	-0.0256	0.0551	-0.0062	0.0036	-0.0782	-0.0471	0.0106	0.0009	-0.0159	-0.0284	-0.0201
CC1(C)CCC(CN2CCN(c3ccc(C(=O)NS(=O)(=O)c4ccc(NCC5CCOCC5)c([N+](=O)[O-])c4)c(Oc4cnc5[nH]ccc5c4)c3)CC2)=C(c2ccc(Cl)cc2)C1 [Venetoclax] + Cc1cc2ncnn2cc1Nc1ncc2c(n1)n(C1CCOCC1)c(=O)n2C [AZD7648] (first compound max 1 µM, 7x7, partner max 10 µM)	-0.0486	-0.0416	-0.0323	0.0556	-0.0358	0.0111	0.109	-0.0552	-0.056	-0.0508	0.0005	-0.0259	-0.0171	-0.018	0.0174	0.0218	-0.0549	-0.0459	-0.0267	-0.0381
CC1(C)CCC(CN2CCN(c3ccc(C(=O)NS(=O)(=O)c4ccc(NCC5CCOCC5)c([N+](=O)[O-])c4)c(Oc4cnc5[nH]ccc5c4)c3)CC2)=C(c2ccc(Cl)cc2)C1 [Venetoclax] + Cn1cnc2c(F)c(Nc3ccc(Br)cc3Cl)c(C(=O)NOCCO)cc21 [Selumetinib] (first compound max 1 µM, 7x7, partner max 3 µM)	-0.0654	-0.0542	-0.0644	0.0456	-0.0466	-0.0335	0.0788	-0.0799	-0.0468	-0.0531	0.0047	-0.017	0.0334	0.001	-0.0275	0.0165	-0.0516	-0.0624	-0.061	-0.034
